Values belong to the molecule of their own block, whether it stands above or below them.
Legend:
HMGA2-DNA interactions [1] = target: T1, HMGA2-DNA interactions (Mus musculus, UniProt P52927); experiment: Protein-DNA interaction ELISA (PDI-ELISA) assay; type: binding, mammalian; conditions: for IC50: inhibition of HMGA2-DNA interactions, PDI-ELISA
T1 construct: made in house
T1 sequence (P52927 2-108 limits assumed): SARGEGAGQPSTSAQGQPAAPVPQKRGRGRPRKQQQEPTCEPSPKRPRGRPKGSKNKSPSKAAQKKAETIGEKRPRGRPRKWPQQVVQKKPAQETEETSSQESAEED
Excerpt: The PDI-ELSA assays were described previously[33] and used to determine the inhibition IC50 against HMGA2-DNA interactions. The apparent inhibitory IC50 values were obtained using the following equation: y=min+(max-min/1+10^((x-logIC50)×Hillslope) , where x, y, max, and min represent the inhibitor’s concentration, the inhibition level, the maximum inhibition value, and the minimum inhibition value, respectively.

HMGA2 = target: T2, HMGA2 (Mus musculus, UniProt P52927); experiment: Isothermal titration calorimetry (ITC), titration into HMGA2; type: binding, mammalian; conditions: for HMGA2 Binding site: number of sites
T2 construct: made in house
T2 sequence (P52927 2-108 limits assumed): T1 sequence (P52927 2-108 limits assumed)
Procedure: (§1) ITC experiments were conducted using a VP-ITC titration calorimeter (MicroCal, Inc., Northampton, MA) interfaced to a PC. Origin 7.0, supplied by the manufacturer was used for data acquisition. […] The heat liberated or absorbed is observed as a peak corresponding to the power required keeping the sample and reference cells at identical temperatures. The peak produced during the injection is converted to heat output by integration and corrected for cell volume and sample concentration. […] The net enthalpy for the titration reaction was determined by subtraction of the component heats of dilution.

[2] = target: “AT-hook” peptide 3 (ATHP3) (Homo sapiens, UniProt P52926); experiment: Isothermal titration calorimetry (ITC), titration into ATHP3; type: binding; conditions: for ATHP3 Ka (M^−1) / ATHP3 Binding site: first line; for ATHP3 Binding site: number of sites
Procedure: as §1

HMGA2-DNA interactions [3] = target: T1, HMGA2-DNA interactions; experiment: AlphaScreen primary uHTS assay of His-tagged HMGA2 binding to biotin-labeled DNA oligomer FL814; set-up: species or system mammalian; conditions: for inhibition of HMGA2-FL814 interactions / inhibition at 5 µM: LOPAC1280 screen, final concentration of 5 µM; for IC50: positive controls, Fig. S1e; for inhibition of HMGA2-DNA interactions (in words): confirmed hits that do not bind to DNA
Procedure: To address these limitations, we established a new assay using AlphaScreen technology. The assay entails binding a biotin-labeled DNA oligomer FL814 and His-tagged HMGA2 to streptavidin-coated donor beads and nickel chelate (Ni-NTA) acceptor beads, respectively (Fig. 1). A series of DNA binding studies were performed to determine the optimal conditions for the AlphaScreen Primary Assay (Fig. S1a–d). […] These two inhibitors are readily available for purchase and served as positive controls for HMGA2-DNA interaction inhibition in the assay.
Using a Labcyte Echo 555 acoustic dispenser 5 nL of DMSO were added to columns 1–4 and 45–48 of a white 1536 well plate, while 5 nL of 2 mM compounds in DMSO were added to columns 5–44. Using a Beckman BioRAPTR FRD bulk reagent dispenser 1 µL of assay buffer (30 mM Citrate, 300 mM NaCl, and 0.005% Tween 20) was added to columns 1 and 2. Next 1 µL of assay buffer containing 125 nM HMGA2 was added to columns 3–48 with a Beckman BioRAPTR FRD bulk reagent dispenser. Finally, 1 µL of assay buffer containing 25 nM FL814 was added to every well of the plate using a Beckman BioRAPTR FRD bulk reagent dispenser. The plate was then centrifuged at 200 × g for 1 min. After 30 min at room temperature, 2 µL of bead buffer (10 mM HEPES, 300 mM NaCl and 0.005% Tween 20) containing 20 µg/mL anti-6xHIS acceptor beads and 20 µg/mL streptavidin donor beads were dispensed into every well using a Beckman BioRAPTR FRD bulk reagent dispenser. The plates were then centrifuged at 200 × g for 1 min. After 1 h at room temperature the plates were read on a Perkin Elmer Envision multimode plate reader in AlphaScreen mode.

HMGA2-DNA interactions [4] = target: T1, HMGA2-DNA interactions; experiment: LANCE TR-FRET secondary assay of HMGA2 binding to FL814; set-up: species or system mammalian; concentration or dose not given beside the values; conditions: cherry picked primary hits
Procedure: In this study, we also developed a LANCE time-resolved fluorescence energy transfer (TR-FRET) assay as a secondary assay for our screening. The His-tagged HMGA2 and biotinylated oligomer FL814 were linked to Europium-labeled anti-6 × His antibody and APC-labeled streptavidin, respectively. A series of DNA binding studies were performed to determine the optimal conditions for the secondary Assay (Fig. S2). After these experiments, 12.5 nM of FL814 and 62.5 nM of HMGA2 were chosen for the assay, which is the same for the primary assay. The assay tolerated up to 0.25% DMSO without any significant change in signal (Fig. S2c). For a counterscreen assay to exclude those compounds that nonspecifically bind to the protein surface, an AlphaScreen assay of H4 peptide binding to bromodomain-containing protein 4 (BRD4) was adopted (Fig. S2e). Since we are looking for compounds with anti-metastasis or anti-obesity activities, compounds with high levels of cytotoxicity are undesirable. […] Furthermore, potential DNA-binding compounds, i.e., DNA intercalators, minor groove binders, and DNA alkylating agents, can be identified by analyzing their chemical structures and will be excluded as well.
Using a Labcyte Echo 555 acoustic dispenser 5 nL of DMSO were added to columns 1–4 and 45–48 of a white 1536 well plate, while 5 nL of 2 mM compounds in DMSO were added to columns 5–44. Using a Beckman BioRAPTR FRD bulk reagent dispenser 1 µL of assay buffer (10 mM Tris, 300 mM NaCl and 0.005% Tween 20) was added to columns 1 and 2. Next, 1 µL of assay buffer containing 125 nM HMGA2 was added to columns 3–48 with a Beckman BioRAPTR FRD bulk reagent dispenser. Finally, 1 µL of assay buffer containing 25 nM FL814 was added to every well of the plate using a Beckman BioRAPTR FRD bulk reagent dispenser. The plate was then centrifuged at 200 × g for 1 min. After 30 min at room temperature 1 µL of assay buffer containing 250 nM LANCE Ultra ULight-anti-6xHIS and 1 µL of assay buffer containing 12 nM LANCE Eu-W1024 Streptavidin was dispensed into every well using a Beckman BioRAPTR FRD bulk reagent dispenser. The plates were then centrifuged at 200 × g for 1 min. After 1 h at room temperature the plates were read on a Perkin Elmer Envision multimode plate reader in TR-FRET mode (excitation @340 nm, first emission at @665 nm, second emission at 615 nm).

[5] = tested on: mouse pre-adipocyte 3T3-L1 cells; set-up: method as in PMID 25653160; conditions: cited from earlier work

Molecule: O=C(Nc1cc(C(=O)Nc2ccc(S(=O)(=O)O)cc2S(=O)(=O)O)cc(C(=O)Nc2ccc(S(=O)(=O)O)cc2S(=O)(=O)O)c1)Nc1cc(C(=O)Nc2ccc(S(=O)(=O)O)cc2S(=O)(=O)O)cc(C(=O)Nc2ccc(S(=O)(=O)O)cc2S(=O)(=O)O)c1 [NF449]
IC50 (HMGA2-DNA interactions [1]): 430 ± 180 nM
HMGA2 Ka (M^−1) (HMGA2; first type of binding sites): 5.53 ± 6.14 × 10^7 M^−1
HMGA2 Binding site (HMGA2; first type): 0.89
HMGA2 Binding site (HMGA2; second type): 1.63
HMGA2 Ka (M^−1) (HMGA2; second type of binding sites): 8.17 ± 1.33 × 10^5 M^−1
ATHP3 Ka (M^−1) [2]: 1.10 ± 7.35 × 10^11 M^−1
ATHP3 Binding site [2]: 0.86

Molecule: O=C(Nc1cccc(C(=O)Nc2ccc(S(=O)(=O)O)c3cc(S(=O)(=O)O)cc(S(=O)(=O)O)c23)c1)Nc1cccc(C(=O)Nc2ccc(S(=O)(=O)O)c3cc(S(=O)(=O)O)cc(S(=O)(=O)O)c23)c1 [NF023]
IC50 (HMGA2-DNA interactions [1]): 10600 ± 460 nM
HMGA2 Ka (M^−1) (HMGA2; first type of binding sites): 2.47 ± 4.53 × 10^6 M^−1
HMGA2 Binding site (HMGA2; first type): 1.74
ATHP3 Ka (M^−1) [2]: 9.75 ± 3.47 × 10^6 M^−1
ATHP3 Binding site [2]: 1

Molecule: Nc1c(S(=O)(=O)O)cc(Nc2ccc(Nc3nc(Cl)nc(Nc4cccc(S(=O)(=O)O)c4)n3)c(S(=O)(=O)O)c2)c2c1C(=O)c1ccccc1C2=O [reactive blue-2]
inhibition of HMGA2-FL814 interactions (HMGA2-DNA interactions [3]): ≥ 50%

Molecule: NF546
IC50 (HMGA2-DNA interactions [1]): 5490 ± 2810 nM
HMGA2 Ka (M^−1) (HMGA2; first type of binding sites): 1.48 ± 0.47 × 10^7 M^−1
HMGA2 Binding site (HMGA2; first type): 1.83
HMGA2 Binding site (HMGA2; second type): 1.98
HMGA2 Ka (M^−1) (HMGA2; second type of binding sites): 3.37 ± 8.81 × 10^5 M^−1
ATHP3 Ka (M^−1) [2]: 4.28 ± 0.47 × 10^6 M^−1
ATHP3 Binding site [2]: 0.81

Molecule: COc1cccc2c1C(=O)c1c(O)c3c(c(O)c1C2=O)C[C@@](O)(C(C)=O)C[C@@H]3O[C@H]1C[C@H](NCc2ccc(CN[C@H]3C[C@H](O[C@H]4C[C@](O)(C(C)=O)Cc5c(O)c6c(c(O)c54)C(=O)c4c(OC)cccc4C6=O)O[C@@H](C)[C@H]3O)cc2)[C@H](O)[C@H](C)O1 [WP631]
IC50 (HMGA2-DNA interactions [3]): 48 nM

inhibition at 5 µM (HMGA2-DNA interactions [3]): ≥ 50%
Molecule: C=C1C[C@@]23CC[C@H]4[C@@](C)(CCC[C@@]4(C)C(=O)O)[C@@H]2CC[C@]1(O)C3 [steviol]

Molecule: O=C(O)C1=CC(=C(c2ccc(O)c(C(=O)O)c2)c2ccc(O)c(C(=O)O)c2)C=CC1=O [aurintricarboxylic acid]
inhibition at 5 µM (HMGA2-DNA interactions [3]): ≥ 50%
inhibition of HMGA2-DNA interactions (in words) (HMGA2-DNA interactions [3]): strongly inhibit HMGA2-DNA interactions
inhibition of HMGA2-DNA interactions (HMGA2-DNA interactions [4]): ≥ 50%

Molecule: O=C1c2c(O)ccc(O)c2C(=O)c2c(NCCNCCO)ccc(NCCNCCO)c21 [mitoxantrone]
inhibition at 5 µM (HMGA2-DNA interactions [3]): ≥ 50%
inhibition of HMGA2-DNA interactions (HMGA2-DNA interactions [4]): ≥ 50%

Molecule: O=S(=O)([O-])c1cccc2ccccc12.[Na+] [sodium 1-naphthalenesulfonate]
inhibition of HMGA2-DNA interactions (in words) (HMGA2-DNA interactions [1]; SAR of suramin analogues): all of these analogues except sodium 1-naphthalenesulfonate potently inhibit HMGA2-DNA interactions
binding to HMGA2 (in words) (HMGA2): all these chemical compounds except sodium 1-naphthalenesulfonate strongly bind to both HMGA2 and ATHP3
binding to ATHP3 (in words) [2]: all these chemical compounds except sodium 1-naphthalenesulfonate strongly bind to both HMGA2 and ATHP3

Molecule: CN(N=O)c1ccc(O)c(O)c1 [methyl-3,4-dephostatin]
inhibition of HMGA2-FL814 interactions (HMGA2-DNA interactions [3]): ≥ 50%

Molecule: N.N.[Cl][Pt][Cl] [cisplatin]
inhibition of HMGA2-FL814 interactions (HMGA2-DNA interactions [3]): ≥ 50%
inhibition of HMGA2-DNA interactions (HMGA2-DNA interactions [4]): ≥ 50%

Molecule: O=C(Nc1cc(C(=O)Nc2ccc(S(=O)(=O)O)cc2)cc(C(=O)Nc2ccc(S(=O)(=O)O)cc2)c1)Nc1cc(C(=O)Nc2ccc(S(=O)(=O)O)cc2)cc(C(=O)Nc2ccc(S(=O)(=O)O)cc2)c1 [NF110]
IC50 (HMGA2-DNA interactions [1]): 870 ± 39 nM
HMGA2 Ka (M^−1) (HMGA2; first type of binding sites): 2.04 ± 0.48 × 10^8 M^−1
HMGA2 Binding site (HMGA2; first type): 2.06
HMGA2 Binding site (HMGA2; second type): 1.77
HMGA2 Ka (M^−1) (HMGA2; second type of binding sites): 7.16 ± 0.67 × 10^5 M^−1
ATHP3 Ka (M^−1) [2]: 2.17 ± 0.17 × 10^7 M^−1
ATHP3 Binding site [2]: 1.01

Molecule: Nc1ccc(-c2nc3ccc(-c4nc5ccc(N)cc5[nH]4)cc3[nH]2)cc1 [Ro 90-7501]
inhibition of HMGA2-FL814 interactions (HMGA2-DNA interactions [3]): ≥ 50%
inhibition of HMGA2-DNA interactions (in words) (HMGA2-DNA interactions [3]): strongly inhibit HMGA2-DNA interactions
inhibition of HMGA2-DNA interactions (HMGA2-DNA interactions [4]): ≥ 50%

Molecule: N.N.O=C([O-])C1(C(=O)[O-])CCC1.[Pt+2] [carboplatin]
inhibition of HMGA2-FL814 interactions (HMGA2-DNA interactions [3]): ≥ 50%
inhibition of HMGA2-DNA interactions (HMGA2-DNA interactions [4]): ≥ 50%

Molecule: indirubin-3′-monoxime
inhibition of HMGA2-FL814 interactions (HMGA2-DNA interactions [3]): ≥ 50%

Molecule: O=C1c2ccccc2C(=O)c2c(NCCc3ccc(O)cc3)ccc(NCCc3ccc(O)cc3)c21 [JFD00244]
inhibition of HMGA2-FL814 interactions (HMGA2-DNA interactions [3]): ≥ 50%

Molecule: Cn1cc(NC(=O)c2cc(NC(=O)CN=C(N)N)cn2C)cc1C(=O)NCCC(=N)N [netropsin]
IC50 (HMGA2-DNA interactions [3]): 22 nM
differentiation of 3T3-L1 cells into adipocytes [5]: strongly inhibited

Molecule: NC(Cc1cc(O)c(O)cc1O)C(=O)O (racemic) [6-hydroxy-DL-DOPA]
inhibition of HMGA2-FL814 interactions (HMGA2-DNA interactions [3]): ≥ 50%

inhibition at 5 µM (HMGA2-DNA interactions [3]): ≥ 50%
Molecule: N#CC(C#N)=C(N)/C(C#N)=C/c1cc(O)c(O)c(O)c1 [tyrphostin 51]

From paper PMC7606612, “Identification of HMGA2 inhibitors by AlphaScreen-based ultra-high-throughput screening assays” (Scientific Reports, 2020)
